Data: patent publication EP4635500A1, “THERAPEUTIC AGENT FOR BACTERIAL INFECTION” (Sumitomo Pharma Co., Ltd., priority 2022, dated 2024)
≈ marks a conversion by molar mass, not a printed value. Like-named read-outs stand apart in the source and are kept apart here.

Experiments:
Enterobacterales = test: MIC, broth microdilution, CDC/FDA Antibiotic Resistance Isolate Bank (Example 7, Tables 8, 11, 12); format: cell-based; conditions: for MIC: read-out: MIC
A. baumannii = test: MIC, broth microdilution, CDC/FDA Antibiotic Resistance Isolate Bank (Example 7, Tables 9, 13, 14); format: cell-based, Acinetobacter baumannii; conditions: for MIC: read-out: MIC
[1] = MIC distribution, metallo-β-lactamase-producing A. baumannii, inhibitor µg/mL in parentheses

C[C@H]1COc2c(N3CCN(C)CC3)c(F)cc3c(=O)c(C(=O)O)cn1c23 [Levofloxacin, levofloxacin]
MIC (Enterobacterales; Klebsiella pneumoniae, KUB No. 5640, AR Bank # 143): 64 mg/L (≈ 177 µM) | MIC (Enterobacterales; Klebsiella pneumoniae, KUB No. 5642, AR Bank # 145): 32 mg/L (≈ 88.6 µM) | MIC (Enterobacterales; Klebsiella pneumoniae, KUB No. 5643, AR Bank # 146): 64 mg/L (≈ 177 µM) | MIC (Enterobacterales; Klebsiella pneumoniae, KUB No. 5645, AR Bank # 148): 64 mg/L (≈ 177 µM) | MIC (Enterobacterales; Klebsiella pneumoniae, KUB No. 5649, AR Bank # 152): 32 mg/L (≈ 88.6 µM) | MIC (Enterobacterales; Klebsiella pneumoniae, KUB No. 5650, AR Bank # 153): > 64 mg/L | MIC (Enterobacterales; Klebsiella pneumoniae, KUB No. 5655, AR Bank # 158): 16 mg/L (≈ 44.3 µM) | MIC (Enterobacterales; Klebsiella pneumoniae, KUB No. 5657, AR Bank # 160): 0.12 mg/L (≈ 0.332 µM) | MIC (Enterobacterales; Klebsiella pneumoniae, KUB No. 5757, AR Bank # 361): 64 mg/L (≈ 177 µM) | MIC (Enterobacterales; Klebsiella pneumoniae, KUB No. 5759, AR Bank # 363): 64 mg/L (≈ 177 µM) | MIC (Enterobacterales; Klebsiella pneumoniae, KUB No. 5760, AR Bank # 364): 64 mg/L (≈ 177 µM) | MIC (Enterobacterales; Klebsiella pneumoniae, KUB No. 5772, AR Bank # 376): 16 mg/L (≈ 44.3 µM) | MIC (Enterobacterales; Klebsiella pneumoniae, Klebsiella pneumoniae KUB No. 5784, AR Bank #438): 64 mg/L (≈ 177 µM) | MIC (Enterobacterales; Klebsiella pneumoniae, Klebsiella pneumoniae KUB No. 5797, AR Bank #453): 64 mg/L (≈ 177 µM) | MIC (Enterobacterales; Klebsiella pneumoniae, Klebsiella pneumoniae KUB No. 5809, AR Bank #504): 0.5 mg/L (≈ 1.38 µM) | MIC (Enterobacterales; Klebsiella pneumoniae, Klebsiella pneumoniae KUB No. 5810, AR Bank #505): 1 mg/L (≈ 2.77 µM) | MIC (Enterobacterales; Klebsiella pneumoniae, Klebsiella pneumoniae KUB No. 5811, AR Bank #506): 4 mg/L (≈ 11.1 µM) | MIC (Enterobacterales; Klebsiella pneumoniae, Klebsiella pneumoniae KUB No. 5812, AR Bank #507): > 64 mg/L | MIC (Enterobacterales; Klebsiella pneumoniae, Klebsiella pneumoniae KUB No. 5827, AR Bank #522): 32 mg/L (≈ 88.6 µM) | MIC (Enterobacterales; Klebsiella pneumoniae, Klebsiella pneumoniae KUB No. 5828, AR Bank #523): 4 mg/L (≈ 11.1 µM) | MIC (Enterobacterales; Klebsiella pneumoniae, Klebsiella pneumoniae KUB No. 5829, AR Bank #524): 32 mg/L (≈ 88.6 µM) | MIC (Enterobacterales; Klebsiella pneumoniae, Klebsiella pneumoniae KUB No. 5830, AR Bank #525): 64 mg/L (≈ 177 µM) | MIC (Enterobacterales; Kluyvera ascorbata, KUB No. 5641, AR Bank # 144): 2 mg/L (≈ 5.53 µM) | MIC (Enterobacterales; Morganella morganii, KUB No. 5554, AR Bank# 57): 8 mg/L (≈ 22.1 µM) | MIC (Enterobacterales; Morganella morganii, KUB No. 5630, AR Bank # 133): 64 mg/L (≈ 177 µM) | MIC (Enterobacterales; Morganella morganii, Morganella morganii KUB No. 5824, AR Bank #519): 0.12 mg/L (≈ 0.332 µM) | MIC (Enterobacterales; Proteus mirabilis, KUB No. 5556, AR Bank# 59): 8 mg/L (≈ 22.1 µM) | MIC (Enterobacterales; Proteus mirabilis, KUB No. 5652, AR Bank # 155): > 64 mg/L | MIC (Enterobacterales; Proteus mirabilis, KUB No. 5653, AR Bank # 156): 2 mg/L (≈ 5.53 µM) | MIC (Enterobacterales; Proteus mirabilis, KUB No. 5656, AR Bank # 159): 2 mg/L (≈ 5.53 µM) | MIC (Enterobacterales; Proteus mirabilis, KUB No. 5773, AR Bank # 377): 16 mg/L (≈ 44.3 µM) | MIC (Enterobacterales; Proteus mirabilis, KUB No. 5775, AR Bank # 379): 4 mg/L (≈ 11.1 µM) | MIC (Enterobacterales; Raoultella ornithinolvtica, KUB No. 5631, AR Bank # 134): 0.5 mg/L (≈ 1.38 µM) | MIC (Enterobacterales; Salmonella enterica, Salmonella Senftenberg, KUB No. 5624, AR Bank # 127): 32 mg/L (≈ 88.6 µM) | MIC (Enterobacterales; Serratia marcescens, KUB No. 5596, AR Bank # 99): 0.25 mg/L (≈ 0.692 µM) | MIC (Enterobacterales; Serratia marcescens, KUB No. 5618, AR Bank # 121): 0.12 mg/L (≈ 0.332 µM) | MIC (Enterobacterales; Serratia marcescens, KUB No. 5619, AR Bank # 122): 0.5 mg/L (≈ 1.38 µM) | MIC (Enterobacterales; Serratia marcescens, KUB No. 5620, AR Bank # 123): 0.25 mg/L (≈ 0.692 µM) | MIC (Enterobacterales; Serratia marcescens, KUB No. 5621, AR Bank # 124): 0.5 mg/L (≈ 1.38 µM) | MIC (Enterobacterales; Serratia marcescens, KUB No. 5627, AR Bank # 130): 0.12 mg/L (≈ 0.332 µM) | MIC (Enterobacterales; Serratia marcescens, KUB No. 5628, AR Bank # 131): 0.5 mg/L (≈ 1.38 µM) | MIC (Enterobacterales; Serratia marcescens, Serratia marcescens KUB No. 5825, AR Bank #520): 0.5 mg/L (≈ 1.38 µM) | MIC (Enterobacterales; Serratia marcescens, Serratia marcescens KUB No. 5826, AR Bank #521): 16 mg/L (≈ 44.3 µM) | MIC50 (Enterobacterales; carbapenemase-producing Enterobacterales, Metallo-β-lactamase (N = 47), read-out: MIC50): 32 mg/L (≈ 88.6 µM) | MIC90 (Enterobacterales; carbapenemase-producing Enterobacterales, Metallo-β-lactamase (N = 47), read-out: MIC90): > 64 mg/L | MIC (A. baumannii; Acinetobacter baumannii, KUB No. 5719, AR Bank #286): 8 mg/L (≈ 22.1 µM) | MIC (A. baumannii; Acinetobacter baumannii, KUB No. 5720, AR Bank #287): 16 mg/L (≈ 44.3 µM) | MIC (A. baumannii; Acinetobacter baumannii, KUB No. 5721, AR Bank #288): > 64 mg/L | MIC (A. baumannii; Acinetobacter baumannii, KUB No. 5722, AR Bank #259): 16 mg/L (≈ 44.3 µM) | MIC (A. baumannii; Acinetobacter baumannii, KUB No. 5723, AR Bank #290): 8 mg/L (≈ 22.1 µM) | MIC (A. baumannii; Acinetobacter baumannii, KUB No. 5724, AR Bank #291): 8 mg/L (≈ 22.1 µM) | MIC (A. baumannii; Acinetobacter baumannii, KUB No. 5725, AR Bank #292): 4 mg/L (≈ 11.1 µM) | MIC (A. baumannii; Acinetobacter baumannii, KUB No. 5726, AR Bank #293): 4 mg/L (≈ 11.1 µM) | MIC (A. baumannii; Acinetobacter baumannii, KUB No. 5727, AR Bank #294): 32 mg/L (≈ 88.6 µM) | MIC (A. baumannii; Acinetobacter baumannii, KUB No. 5728, AR Bank #295): 16 mg/L (≈ 44.3 µM) | MIC (A. baumannii; Acinetobacter baumannii, KUB No. 5729, AR Bank #296): 32 mg/L (≈ 88.6 µM) | MIC (A. baumannii; Acinetobacter baumannii, KUB No. 5730, AR Bank #297): 32 mg/L (≈ 88.6 µM) | MIC (A. baumannii; Acinetobacter baumannii, KUB No. 5731, AR Bank #298): 8 mg/L (≈ 22.1 µM) | MIC (A. baumannii; Acinetobacter baumannii, KUB No. 5732, AR Bank #299): 64 mg/L (≈ 177 µM) | MIC (A. baumannii; Acinetobacter baumannii, KUB No. 5733, AR Bank #300): 64 mg/L (≈ 177 µM) | MIC (A. baumannii; Acinetobacter baumannii, KUB No. 5734, AR Bank #301): 16 mg/L (≈ 44.3 µM) | MIC (A. baumannii; Acinetobacter baumannii, KUB No. 5735, AR Bank #302): > 64 mg/L | MIC (A. baumannii; Acinetobacter baumannii, KUB No. 5736, AR Bank #303): 16 mg/L (≈ 44.3 µM) | MIC (A. baumannii; Acinetobacter baumannii, KUB No. 5737, AR Bank #304): 16 mg/L (≈ 44.3 µM) | MIC (A. baumannii; Acinetobacter baumannii, KUB No. 5738, AR Bank #305): 16 mg/L (≈ 44.3 µM) | MIC (A. baumannii; Acinetobacter baumannii, KUB No. 5739, AR Bank #306): 32 mg/L (≈ 88.6 µM) | MIC (A. baumannii; Acinetobacter baumannii, KUB No. 5740, AR Bank #307): 16 mg/L (≈ 44.3 µM) | MIC (A. baumannii; Acinetobacter baumannii, KUB No. 5741, AR Bank #308): 16 mg/L (≈ 44.3 µM) | MIC (A. baumannii; Acinetobacter baumannii, KUB No. 5742, AR Bank #309): 64 mg/L (≈ 177 µM) | MIC (A. baumannii; Acinetobacter baumannii, KUB No. 5743, AR Bank #310): 32 mg/L (≈ 88.6 µM) | MIC (A. baumannii; Acinetobacter baumannii, KUB No. 5744, AR Bank #311): 4 mg/L (≈ 11.1 µM) | MIC (A. baumannii; Acinetobacter baumannii, KUB No. 5745, AR Bank #312): 4 mg/L (≈ 11.1 µM) | MIC (A. baumannii; Acinetobacter baumannii, KUB No. 5746, AR Bank #313): 8 mg/L (≈ 22.1 µM) | MIC50 (A. baumannii; Acinetobacter baumannii, 55 isolates of A. baumannii, read-out: MIC50): 16 mg/L (≈ 44.3 µM) | MIC80 (A. baumannii; Acinetobacter baumannii, 55 isolates of A. baumannii, read-out: MIC80): 32 mg/L (≈ 88.6 µM) | MIC90 (A. baumannii; Acinetobacter baumannii, 55 isolates of A. baumannii, read-out: MIC90): 64 mg/L (≈ 177 µM) | Number of isolates at MIC 8 µg/mL (A. baumannii; [1]): 3 | Number of isolates at MIC 16 µg/mL (A. baumannii; [1]): 1
